The numbers were not newly measured in patent US11389512B2, “Use of low molecular weight fractions of human serum albumin in treating diseases” (Ampio Pharmaceuticals, Inc., priority 2015, dated 2022), which cites them from elsewhere.

The subject of data set [1] is platelet activating factor.
For data set [2] the following is noted: in vivo.

On to `CC1NC(=O)C(CC(=O)O)NC1=O` (centres unmarked) [DA-DKP, 3-methyl-2,5-diketopiperazine-6-acetic acid], for which the “inhibition of platelet activating factor” value in data set [1] is recorded as “inhibit”. Take `CC(=O)Oc1ccccc1C(=O)O` [aspirin, acetylsalicylic acid]: the “time to be cleared from the body” value in data set [2] is recorded as 5 days.
